# How the values were obtained:
# Assay type in all cases: in vivo, Sprague-Dawley rats
# [1] = tested on: cocaine-induced locomotor activity and rearing; assay: cocaine-induced (acute) locomotor activity and rearing in rats
# Protocol: In order to examine effects of a pharmaceutical composition for prevention and treatment of drug or alcohol addiction or bipolar disorder containing sodium phenylbutyrate (PBA) in accordance with the present invention, the following animal experiments were carried out using Sprague-Dawley rats, weighing 250-275 g (upon arrival), (Samtaco Animal Breeding Company, Osan, Korea).
# A bank of 12 activity boxes was used to measure locomotor activity of animals (Kim & Vezina, 1998). Each box (22×43×33 cm) estimated locomotor activity from photo beam interruptions. Rats were placed in the activity boxes for a 1-hour habituation period. Then, these rats were administered with the respective dosages of the pharmaceutical composition and were immediately placed again in the activity boxes, and locomotor activity and rearing activity of rats were measured for additional 2 hours. […] Rearing activity was also measured by counting upward/downward motion of rats via photo beams installed in the activity boxes. […]
# Different concentrations (0.1, 1.0, 5.0 and 10.0 mg/kg) of sodium phenylbutyrate were intraperitoneally injected (acute) alone or in combination with cocaine (15 mg/kg) into rats, and locomotor activity and rearing of animals were measured for 2 hours. […]
# [2] = tested on: amphetamine-induced locomotor activity; assay: amphetamine-induced (acute) locomotor activity in rats
# Protocol: In order to examine effects of a pharmaceutical composition for prevention and treatment of drug or alcohol addiction or bipolar disorder containing sodium phenylbutyrate (PBA) in accordance with the present invention, the following animal experiments were carried out using Sprague-Dawley rats, weighing 250-275 g (upon arrival), (Samtaco Animal Breeding Company, Osan, Korea). A bank of 12 activity boxes was used to measure locomotor activity of animals (Kim & Vezina, 1998). Each box (22×43×33 cm) estimated locomotor activity from photo beam interruptions. Rats were placed in the activity boxes for a 1-hour habituation period. Then, these rats were administered with the respective dosages of the pharmaceutical composition and were immediately placed again in the activity boxes, and locomotor activity and rearing activity of rats were measured for additional 2 hours. […] Rearing activity was also measured by counting upward/downward motion of rats via photo beams installed in the activity boxes. […] Similar to Example 1, different concentrations (0.1, 1.0 and 10.0 mg/kg) of sodium phenylbutyrate were intraperitoneally injected (acute) alone or in combination with amphetamine (1.5 mg/kg) into rats, and locomotor activity of animals was measured for 2 hours. […]
# [3] = tested on: amphetamine-induced behavioral sensitization; assay: amphetamine-induced behavioral sensitization (chronic) in rats
# Protocol: In order to examine effects of a pharmaceutical composition for prevention and treatment of drug or alcohol addiction or bipolar disorder containing sodium phenylbutyrate (PBA) in accordance with the present invention, the following animal experiments were carried out using Sprague-Dawley rats, weighing 250-275 g (upon arrival), (Samtaco Animal Breeding Company, Osan, Korea). A bank of 12 activity boxes was used to measure locomotor activity of animals (Kim & Vezina, 1998). Each box (22×43×33 cm) estimated locomotor activity from photo beam interruptions. Rats were placed in the activity boxes for a 1-hour habituation period. Then, these rats were administered with the respective dosages of the pharmaceutical composition and were immediately placed again in the activity boxes, and locomotor activity and rearing activity of rats were measured for additional 2 hours. Specifically, a computer was adapted to count locomotion of rats via photo beams installed on the top/bottom and right/left of the activity boxes, and such locomotion behavior of rats was confirmed for two hours. Rearing activity was also measured by counting upward/downward motion of rats via photo beams installed in the activity boxes. […]
# locomotor activity = locomotor activity after sodium phenylbutyrate alone daily for 7 days; conditions: rats, 0.1 and 1.0 mg/kg i.p. once a day for 7 days, measured day 1 and day 7
# Protocol: In order to examine effects of a pharmaceutical composition for prevention and treatment of drug or alcohol addiction or bipolar disorder containing sodium phenylbutyrate (PBA) in accordance with the present invention, the following animal experiments were carried out using Sprague-Dawley rats, weighing 250-275 g (upon arrival), (Samtaco Animal Breeding Company, Osan, Korea). A bank of 12 activity boxes was used to measure locomotor activity of animals (Kim & Vezina, 1998). Each box (22×43×33 cm) estimated locomotor activity from photo beam interruptions. Rats were placed in the activity boxes for a 1-hour habituation period. Then, these rats were administered with the respective dosages of the pharmaceutical composition and were immediately placed again in the activity boxes, and locomotor activity and rearing activity of rats were measured for additional 2 hours. Specifically, a computer was adapted to count locomotion of rats via photo beams installed on the top/bottom and right/left of the activity boxes, and such locomotion behavior of rats was confirmed for two hours. Rearing activity was also measured by counting upward/downward motion of rats via photo beams installed in the activity boxes. […] On day 1 and day 7 of drug administration, locomotor activity of animals was measured. […]
compound,measurement,setting,value
O=C(O)CCCc1ccccc1 [sodium phenylbutyrate],effect on increase in cocaine-induced locomotor activity and rearing,"[1]; i.p. acute, 0.1, 1.0, 5.0 and 10.0 mg/kg with cocaine 15 mg/kg, measured 2 hours",reduce an increase in cocaine-induced locomotor activity and rearing of rats in a dose-dependent manner
same,dose at which effects on cocaine-induced locomotor activity and rearing were greatest,"[1]; i.p. acute, with cocaine 15 mg/kg",1.0 mg/kg
same,effect on increase in amphetamine-induced locomotor activity,"[2]; i.p. acute, 0.1, 1.0 and 10.0 mg/kg with amphetamine 1.5 mg/kg, measured 2 hours",decrease an increase in amphetamine-induced locomotor activity
same,dose range at which effects on amphetamine-induced locomotor activity were similarly exhibited,"[2]; i.p. acute, with amphetamine 1.5 mg/kg",0.1 to 10.0 mg/kg
same,effect on amphetamine-induced behavioral sensitization,"[3]; rats, 0.1, 1.0 and 10.0 mg/kg with amphetamine 1.5 mg/kg four times at 2 to 3 day intervals, one-week withdrawal, amphetamine challenge",significant blocking effects against amphetamine-induced behavioral sensitization
same,dose range at which blocking of behavioral sensitization was particularly strong,"[3]; rats, repeated co-administration with amphetamine 1.5 mg/kg",0.1 to 1.0 mg/kg
same,changes in locomotor activity on administration of sodium phenylbutyrate alone,locomotor activity,does not result in any significant changes in locomotor activity of animals
